For orientation: inhibition means the relative decrease from the control value, in per cent. Broadly, the Ki is the equilibrium dissociation constant of an inhibitor or competing ligand from its target.

One assay deals with T1, JNK1α1 (Homo sapiens, UniProt P45983).
T1 construct: catalytic domain containing amino acids 1-364 and N-terminal hexahistidine tag; hexahistidine (His6) (N); made in house; host or cells: E. coli BL21 (DE3)
T1 sequence (P45983 1-364): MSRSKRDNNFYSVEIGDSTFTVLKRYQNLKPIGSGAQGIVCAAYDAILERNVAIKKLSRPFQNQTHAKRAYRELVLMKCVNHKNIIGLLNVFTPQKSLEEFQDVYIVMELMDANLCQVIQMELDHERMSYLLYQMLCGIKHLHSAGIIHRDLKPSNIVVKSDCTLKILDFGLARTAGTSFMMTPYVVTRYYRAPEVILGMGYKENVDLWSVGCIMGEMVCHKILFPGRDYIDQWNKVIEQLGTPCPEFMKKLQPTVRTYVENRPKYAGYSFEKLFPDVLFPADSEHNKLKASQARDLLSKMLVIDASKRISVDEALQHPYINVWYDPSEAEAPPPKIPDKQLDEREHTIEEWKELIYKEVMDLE
Description: Coupled spectrophotometric (PK/LDH) JNK1α1 assay: % inhibition and Ki determination. Format: biochemical. The conditions noted are these: @1 uM; read-out: % Inhibition JNK-1. In short, it runs like this:
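Initial rates were taken from the absorbance decrease at 340 nm at 30° C. Ki was fitted with a tight-binding model over 11 concentrations (top 100 μM); single-point inhibition was tested at 1 or 10 μM.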
For the compound `Cn1nc(-c2ccncc2)cc1NC(=O)c1cccc2cnc(N[C@H]3CC[C@H](O)CC3)nc12` [Example 317, 2-[(trans-4-hydroxycyclohexyl)amino]-N-(1-methyl-3-pyridin-4-yl-1H-pyrazol-5-yl)quinazoline-8-carboxamide], the inhibition at 1 µM worked out at 31%.
The same measure, in the same setting: the value for `O=C(NCCn1ccccc1=O)c1cccc2cnc(N[C@H]3CC[C@H](O)CC3)nc12` [Example 528, 2-[(trans-4-hydroxycyclohexyl)amino]-N-[2-(2-oxopyridin-1(2H)-yl)ethyl]quinazoline-8-carboxamide] was 26%; that for `O=C(NCc1ccccn1)c1cccc2cnc(N[C@H]3CC[C@H](O)CC3)nc12` [Example 468, 2-[(trans-4-hydroxycyclohexyl)amino]-N-(pyridin-2-ylmethyl)quinazoline-8-carboxamide] was 15%; that for `CNC(=O)[C@H](C)NC(=O)c1cccc2cnc(N[C@H]3CC[C@H](O)CC3)nc12` [Example 516, 2-[(trans-4-hydroxycyclohexyl)amino]-N-[(1S)-1-methyl-2-(methylamino)-2-oxoethyl]quinazoline-8-carboxamide] was 26%.
`O[C@H]1CC[C@H](Nc2ncc3ccc(OC4CCC(F)(F)CC4)cc3n2)CC1` [Example 279, trans-4-({7-[(4,4-difluorocyclohexyl)oxy]quinazolin-2-yl}amino)cyclohexanol]: the inhibition at 1 µM was determined as 54%.

Still in this assay, the particulars now being: @10 uM; read-out: % Inhibition JNK-1.
Consider `Cc1ccc(C(C)NC(=O)c2cccc3cnc(N[C@H]4CC[C@H](O)CC4)nc23)cn1` (stereo partly drawn) [Example 487, 2-[(trans-4-hydroxycyclohexyl)amino]-N-[1-(6-methylpyridin-3-yl)ethyl]quinazoline-8-carboxamide], for which the inhibition at 10 µM came out at 51%.
Still for that read-out and setting: the figure for `CN(C)C(=O)CNC(=O)c1cccc2cnc(N[C@H]3CC[C@H](O)CC3)nc12` [Example 509, N-[2-(dimethylamino)-2-oxoethyl]-2-[(trans-4-hydroxycyclohexyl)amino]quinazoline-8-carboxamide] is 49%.
In the case of `O=C(NCCN1CCCCC1=O)c1cccc2cnc(N[C@H]3CC[C@H](O)CC3)nc12` [Example 486, 2-[(trans-4-hydroxycyclohexyl)amino]-N-[2-(2-oxopiperidin-1-yl)ethyl]quinazoline-8-carboxamide], the inhibition at 10 µM was 50%.
With `CN1CC(CNC(=O)c2cccc3cnc(N[C@H]4CC[C@H](O)CC4)nc23)OCC1=O` (stereo partly drawn) [Example 525, 2-[(trans-4-hydroxycyclohexyl)amino]-N-[(4-methyl-5-oxomorpholin-2-yl)methyl]quinazoline-8-carboxamide], the inhibition at 10 µM was determined as 41%.

Staying with this assay, now noted: JNK-1.
The compound `COc1ccccc1-c1cccc2cnc(N[C@H]3CC[C@H](O)CC3)nc12` [Example 204, trans-4-{(8-(2-methoxyphenyl)quinazolin-2-yl]amino} cyclohexanol] returned a Ki of 303 nM.
On to `COc1ccnc(NC(=O)c2ccc3cnc(N[C@H]4CC[C@H](O)CC4)nc3c2)c1` [Example 361, 2-[(trans-4-hydroxycyclohexyl)amino]-N-(4-methoxypyridin-2-yl)quinazoline-7-carboxamide], for which the inhibitory constant (Ki) came to 1810 nM.
The same measure, in the same setting: the figure for `c1ccc2nc(CNc3cc4cc(-c5cn[nH]c5)ccc4cn3)cnc2c1` [Example 222, 6-(1H-pyrazol-4-yl)-N-(quinoxalin-2-ylmethyl)isoquinolin-3-amine] is 2950 nM; for `CN(C)C(=O)CCC(=O)Nc1cc2cc(-c3cn[nH]c3)ccc2cn1` [Example 40, N,N-dimethyl-N′-[6-(1H-pyrazol-4-yl)isoquinolin-3-yl]succinamide] it is 8 nM.
On the same count and under the same terms, the figure for `O[C@H]1CC[C@H](Nc2ncc3cccc(OCc4ccccn4)c3n2)CC1` [Example 248, trans-4-{[8-(pyridin-2-ylmethoxy)quinazolin-2-yl]amino}cyclohexanol] is 303 nM; for `CC[C@@H](CO)NC(=O)c1ccc2cnc(NC3CCC3)nc2c1` [Example 416, 2-(cyclobutylamino)-N-[(1S)-1-(hydroxymethyl)propyl]quinazoline-7-carboxamide] it is 1550 nM.
On the same count and under the same terms, the value for `O=C(COCc1ccccc1)Nc1cc2cc(-c3cn[nH]c3)ccc2cn1` [Example 49, 2-(benzyloxy)-N-[6-(1H-pyrazol-4-yl)isoquinolin-3-yl]acetamide] was 3 nM; that for `O=C(N[C@H]1CC[C@H](CO)CC1)c1cccc2cnc(N[C@H]3CC[C@H](O)CC3)nc12` [Example 457, 2-[(trans-4-hydroxycyclohexyl)amino]-N-[trans-4-(hydroxymethyl)cyclohexyl]quinazoline-8-carboxamide] was 275 nM; that for `CS(=O)(=O)N[C@H]1CC[C@H](Nc2ncc3ccc(OC4CCOC4)cc3n2)CC1` (stereo partly drawn) [Example 162, N-(trans-4-{[7-(tetrahydrofuran-3-yloxy)quinazolin-2-yl]amino}cyclohexyl)methanesulfonamide] was 260 nM.
`c1ccc2nc(NC3CCCCC3)ncc2c1` [Example 147] registered an inhibition constant Ki of 460 nM.
Still for that read-out and setting: the value for `O=C(N[C@@H](CO)c1ccccc1)c1ccc2cnc(N[C@H]3CC[C@H](O)CC3)nc2c1` [Example 337, 2-[(trans-4-hydroxycyclohexyl)amino]-N-[(1R)-2-hydroxy-1-phenylethyl]quinazoline-7-carboxamide] was 568 nM; that for `Fc1ccc2cnc(NC3CCCCC3)nc2c1` [Example 148] was 456 nM.
On the same count and under the same terms, the figure for `O=C(Cc1ccc(Oc2ccnc3ccsc23)cc1)Nc1cc2cc(-c3cn[nH]c3)ccc2cn1` [Example 24, N-[6-(1H-pyrazol-4-yl)isoquinolin-3-yl]-2-[4-(thieno[3,2-b]pyridin-7-yloxy)phenyl]acetamide] is 25 nM; for `COc1cc2c(cc1CNc1cc3cc(-c4cn[nH]c4)ccc3cn1)N(C)C(=O)CC2` [Example 219, 6-methoxy-1-methyl-7-({[6-(1H-pyrazol-4-yl)isoquinolin-3-yl]amino}methyl)-3,4-dihydroquinolin-2(1H)-one] it is 1160 nM.
In the case of `NCCOc1ccc(-c2cccc3cnc(N[C@H]4CC[C@H](O)CC4)nc23)cc1` [Example 202, trans-4-({8-[4-(2-aminoethoxy)phenyl]quinazolin-2-yl}amino) cyclohexanol], the Ki was 77 nM.
The compound `Cc1cccc(NC(=O)c2ccc3cnc(N[C@H]4CC[C@H](O)CC4)nc3c2)n1` [Example 369, 2-[(trans-4-hydroxycyclohexyl)amino]-N-(6-methylpyridin-2-yl)quinazoline-7-carboxamide] registered an inhibition constant (Ki) of 2310 nM.

Values taken from patent US7998978B2 (Pfizer Inc., priority 2006, dated 2011).
